From PubChem BioAssay AID1648 (Sanford-Burnham Center for Chemical Genomics, 2009)
Calls of active or inactive are those of the source. The rule behind the calls is not given here.

Target: Serine/threonine-protein kinase mTOR (Homo sapiens) (UniProt P42345)
Test: binders of mTOR FRB domain, biophysical, NMR (AID 1648)
Settings: NMR binding to FRB domain, chemical shift

Serine/threonine-protein kinase mTOR (Homo sapiens), sequence (P42345 2015-2114): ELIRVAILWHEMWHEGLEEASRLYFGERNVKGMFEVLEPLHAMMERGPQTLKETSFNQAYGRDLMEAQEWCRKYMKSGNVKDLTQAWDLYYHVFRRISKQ

SMILES | Kd
C[C@@H]1O[C@@H](O[C@H]2[C@@H](Oc3cc(O)c4c(c3)O[C@H](c3ccc(O)cc3)CC4=O)O[C@H](CO)[C@@H](O)[C@@H]2O)[C@H](O)[C@H](O)[C@H]1O | > 4 mM (inactive)
O=C1CCC(C(=O)NCc2cccnc2)N1 (stereo not given) | > 4 mM (inactive)
COC(=O)c1c(OC)cc2c(c1C)Oc1c(Cl)c(O)c(Cl)c(C)c1C(=O)O2 | > 4 mM (inactive)
CC(=O)NC(=S)Nc1cccc(C(=O)O)c1C | > 4 mM (inactive)
Cc1nn2c(=O)/c(=C/c3cccc(F)c3)sc2nc1=O | > 4 mM (inactive)
O/N=C1/CCCc2nonc21 | > 4 mM (inactive)
Cn1ncc(C(=O)NC2CCCCC2)c1Cl | > 4 mM (inactive)
NCc1ccc(N2CCOCC2)cc1 | > 4 mM (inactive)
Oc1ccc(-n2ccnc2)cc1 | > 4 mM (inactive)
C=CCc1ccc2c(c1)OCO2 | > 4 mM (inactive)
NC(=O)C1CCN(c2nccc(C(F)(F)F)n2)CC1 | > 4 mM (inactive)
O=C(NC1CCS(=O)(=O)C1)c1cccs1 (stereo not given) | > 4 mM (inactive)
CN1CCC(NC(=O)Cc2c(F)cccc2Cl)CC1 | > 4 mM (inactive)
CN(C)N1C(=O)c2ccccc2C1=O | > 4 mM (inactive)
Cc1nnsc1C(=O)Nc1cccc(S(N)(=O)=O)c1 | > 4 mM (inactive)
CC(=O)NC(c1ccccc1)c1cccnc1 (stereo not given) | > 4 mM (inactive)
O=S1(=O)CCC(NC(=S)Nc2ccc(O)cc2)C1 (stereo not given) | > 4 mM (inactive)
Cc1[nH]c2ccccc2c1CN(C)C | > 4 mM (inactive)
Cc1ccc(-c2nn(C)c(=O)c3ccccc23)cc1CO | > 4 mM (inactive)
CN1C(=O)C(Cc2c[nH]c3ccccc23)C(=O)N(C)C1=O | > 4 mM (inactive)
Cn1c(SCC(N)=O)nnc1-c1c[nH]c2ccccc12 | > 4 mM (inactive)
CSc1ccc(/C=N/n2c(C)nnc2C)cc1 | > 4 mM (inactive)
C/C(=C\CO)CC[C@H](C)CCC[C@H](C)CCCC(C)C | > 4 mM (inactive)

SMILES | Kd
O=C(Nc1ccon1)c1csc2ccccc12 | > 4 mM (inactive)
Cc1c(C(=O)NCc2ccccn2)oc2ccccc12 | > 4 mM (inactive)
OCCNc1ccccn1 | > 4 mM (inactive)
NC(=O)C1(S(=O)(=O)c2ccccc2)CC1 | > 4 mM (inactive)
COC(=O)Cc1cc(=O)n(-c2ccccc2)[nH]1 | > 4 mM (inactive)
COn1c(=O)c(-c2ccco2)[n+]([O-])c2ccccc21 | > 4 mM (inactive)
Nc1nc(SCc2ccccc2)ns1 | > 4 mM (inactive)
Cc1nnc(N2CCN(c3ccccc3)CC2)[nH]c1=O | > 4 mM (inactive)
Nc1ccc(N2CCOCC2)c(Cl)c1 | > 4 mM (inactive)
CC(C)c1c(O)c(-c2cc3c(c(C(C)C)c2O)CCC2C(C)(C)CCC[C@]32C)cc2c1CCC1C(C)(C)CCC[C@]21C (stereo not given in full) | > 4 mM (inactive)
Nc1ncc2[nH]cnc2n1 | > 4 mM (inactive)
CN(C)C(=O)CCNS(=O)(=O)c1ccccc1 | > 4 mM (inactive)
COc1ccc2c(c1)[n+](=O)c(C(C)=O)c(C)n2[O-] | > 4 mM (inactive)
Cc1cc(C)cc(C(=O)n2cnnc2N)c1 | > 4 mM (inactive)
O=C(Oc1ccc2c(c1)CCC2)N1CCOCC1 | > 4 mM (inactive)
CNC(=S)Nc1ccc2c(c1)OCO2 | > 4 mM (inactive)
Cc1ccc(S(=O)(=O)CC(=O)N2CCCC2)cc1 | > 4 mM (inactive)
O=C(NN1C(=O)C2C3C=CC(C3)C2C1=O)C1CC=CCC1 (stereo not given) | > 4 mM (inactive)
CN1CCN(C(=O)Nc2cccc3ccccc23)CC1 | > 4 mM (inactive)
CC(CCC(=O)O)[C@H]1CCC2C3C[C@H](O)[C@@H]4C[C@H](O)CC[C@]4(C)C3CC[C@@]21C (stereo not given in full) | > 4 mM (inactive)
Cn1c(=O)c2c(n(C)c1=O)=NC1(CCCCC1)N=2 | > 4 mM (inactive)
COC(=O)Cn1c2ccccc2c2nc(C)sc21 | > 4 mM (inactive)
NC(=O)CSc1nnc2ccc3ccccc3n12 | > 4 mM (inactive)

SMILES | Kd
O=[N+]([O-])c1ccc2c(c1)N([O-])C1(CCCCC1)[N+]2=O | > 4 mM (inactive)
O=c1c(O)cccc2cc(O)c(O)c(O)c12 | > 4 mM (inactive)
Nc1c(N2CCCC2)cnn(-c2ccccc2)c1=O | > 4 mM (inactive)
COc1ccc2c(c1OC)C(=O)O[C@@H]2[C@@H]1c2cc3c(cc2CCN1C)OCO3 | > 4 mM (inactive)
Cn1nc(-c2cccs2)cc1N | > 4 mM (inactive)
Nc1cccc(S(=O)(=O)N2CCCC2)c1 | > 4 mM (inactive)
Cc1ccc(-n2ncc(C#N)c2/N=C/N(C)C)cc1 | > 4 mM (inactive)
CCCn1cnc2sc(C(N)=O)c(C)c2c1=O | > 4 mM (inactive)
N=c1c2c3c(sc2ncn1N)CCCC3 | > 4 mM (inactive)
O=C1CNC(=O)/C1=C/c1ccc(O)cc1 | > 4 mM (inactive)
Cc1cc(C)n(CC(=O)O)n1 | > 4 mM (inactive)
CC(=O)Nn1cc2c(=O)n(C)c(=O)n(C)c2c1 | > 4 mM (inactive)
c1ccc(Cc2nnc3sc(-c4ccccn4)nn23)cc1 | > 4 mM (inactive)
Cc1occc(=O)c1O | > 4 mM (inactive)
O=C(c1ccco1)N1C(=O)c2cccc3cccc1c23 | > 4 mM (inactive)
O=C(O)c1ccc2[nH]c3c(c2c1)CSCC3 | > 4 mM (inactive)
CCc1nnsc1C(=O)Nc1nccs1 | > 4 mM (inactive)
COC(=O)c1cccs1 | > 4 mM (inactive)
O=c1ccn([C@@H]2O[C@H](COP(=O)(O)OP(=O)(O)OP(=O)(O)O)[C@@H](O)[C@H]2O)c(=O)[nH]1 | > 4 mM (inactive)
CN1CCC(NC(=O)c2ccccc2[N+](=O)[O-])CC1 | > 4 mM (inactive)
NCCNC(=S)Nc1ccccc1 | > 4 mM (inactive)
Cc1cc(=O)[nH]c(NCC(=O)O)n1 | > 4 mM (inactive)
c1ccc(-n2nnnc2-n2cnc3ccccc32)cc1 | > 4 mM (inactive)

SMILES | Kd
CCOc1ccc(C(=O)c2ccc(O)c(O)c2O)cc1 | > 4 mM (inactive)
CC(=O)Nc1cc(S(=O)(=O)N(C)C)ccc1Cl | > 4 mM (inactive)
O=c1[nH]c(CN2CCN(CCO)CC2)nc2ccccc12 | > 4 mM (inactive)
Nc1cc(N)nc(SCc2cccnc2)n1 | > 4 mM (inactive)
Cc1cc(C)c2ccc[n+]([O-])c2c1O | > 4 mM (inactive)
COc1ccc([C@@H]2CC(=O)c3c(O)cc(O[C@@H]4O[C@H](CO[C@H]5O[C@@H](C)[C@H](O)[C@@H](O)[C@H]5O)[C@@H](O)[C@H](O)[C@H]4O)cc3O2)cc1O | > 4 mM (inactive)
CC1(C)CC23C(=O)CCC(O)C2(C)CCC13 (stereo not given) | > 4 mM (inactive)
O=C(c1ccc(F)cc1)N1CCN(c2ncccn2)CC1 | > 4 mM (inactive)
CC(=O)Nc1cc(O)cc(O)c1 | > 4 mM (inactive)
OC[C@H]1O[C@@](CO)(O[C@@H]2O[C@H](CO)[C@@H](O)[C@H](O)[C@H]2O)[C@@H](O[C@@H]2O[C@H](CO)[C@@H](O)[C@H](O)[C@H]2O)[C@@H]1O | > 4 mM (inactive)
CC[C@@]1(O)C(=O)OCc2c1cc1n(c2=O)Cc2cc3ccccc3nc2-1 | > 4 mM (inactive)
CN1C2CC[C@@H]1CC(OC(=O)[C@H](CO)c1ccccc1)C2 (stereo not given in full) | > 4 mM (inactive)
O=c1ccc2cc(O[C@@H]3O[C@H](CO)[C@@H](O)[C@H](O)[C@H]3O)c(O)cc2o1 | > 4 mM (inactive)
Nc1ccc(F)cc1F | > 4 mM (inactive)
CC1/C(=N/O)C[C@@H]2C[C@H]1C2(C)C (stereo not given in full) | > 4 mM (inactive)
CC(=O)NC(=S)Nc1ccccc1C(N)=O | > 4 mM (inactive)
Cc1ccccc1NC(=O)CSc1ccnc(=O)[nH]1 | > 4 mM (inactive)
CC(C)C(=O)NCC(c1ccco1)N1CCOCC1 (stereo not given) | > 4 mM (inactive)
O=C(Nc1c[nH]c(=O)[nH]c1=O)c1ccccc1F | > 4 mM (inactive)
COc1cnn(Cc2ccccc2)c(=O)c1Cl | > 4 mM (inactive)
O=C(NCc1cccs1)c1ccncc1 | > 4 mM (inactive)
CN1C2CCC1CC(OC(=O)C(CO)c1ccccc1)C2 (stereo not given) | > 4 mM (inactive)
OCc1ccc(-n2cccn2)cc1 | > 4 mM (inactive)

SMILES | Kd
O=C(O)c1cn(-c2ccccc2)nc1-c1ccncc1 | > 4 mM (inactive)
CC(=O)c1cccc(NC(=O)NN2CCOCC2)c1 | > 4 mM (inactive)
Cc1scc(C(=O)Nc2ccon2)c1-c1ccccc1 | > 4 mM (inactive)
O=c1c2c(nc3nc(Cc4ccccc4)[nH]n13)CCC2 | > 4 mM (inactive)
CCCCCCCCCCCCCCC(C(=O)OC)C(O)(CC(=O)OC)C(=O)OC (stereo not given) | > 4 mM (inactive)
O=C(O)Cn1nc(-c2ccccc2)c2ccccc2c1=O | > 4 mM (inactive)
O=C(O)c1coc2c1C(=O)CCC2 | > 4 mM (inactive)
CCn1ncc(Cl)c1C(=O)Nc1ccncc1 | > 4 mM (inactive)
CS(=O)(=O)NC1CCN(Cc2ccccc2)CC1 | > 4 mM (inactive)
O=C(O)CCCCCCCCCCCCC1C=CCC1 (stereo not given) | > 4 mM (inactive)
O=C1CSC(=Nc2cc(Cl)ccc2Cl)N1 | > 4 mM (inactive)
CCOC(=O)c1sc(SC)c2c1CCCC2O (stereo not given) | > 4 mM (inactive)
O=C(NCCO)c1cc2ccccc2c(=O)s1 | > 4 mM (inactive)
CN(Cc1nc2ccccc2n1C)C(=O)c1cccs1 | > 4 mM (inactive)
O=C(NN1CCOCC1)c1cccs1 | > 4 mM (inactive)
CCOC(=O)c1c(SC)nc(=O)[nH]c1C | > 4 mM (inactive)
CC1(C)C(=O)CC[C@@]2(C)C1C[C@@H](O)[C@@]1(C)C3=CC(=O)O[C@@H](c4ccoc4)[C@]3(C)CCC21 (stereo not given in full) | > 4 mM (inactive)
CN1CCN(CC(O)c2ccccc2)CC1 (stereo not given) | > 4 mM (inactive)
Nc1ncnc(NC2CCS(=O)(=O)C2)c1[N+](=O)[O-] (stereo not given) | > 4 mM (inactive)
CC(=O)Nc1ccc(S(=O)(=O)N(C)C)cc1 | > 4 mM (inactive)
CCOC(=O)c1c(C)nc2sccn12 | > 4 mM (inactive)
Nc1cc(=O)[nH]c(SCC(=O)Nc2nccs2)n1 | > 4 mM (inactive)
CCCCCCCCCCCC1=C(O)C(=O)C=C(O)C1=O | > 4 mM (inactive)
